Laboratory results from patent US20230201311A1, “COMPOSITIONS AND METHODS FOR TREATING NON-ALCOHOLIC STEATOHEPATITIS (NASH)” (SHANGHAI BENEMAE PHARMACEUTICAL CORPORATION, priority 2020, published 2023).

Tests used:
[1] = test system: HFD-NASH mice; assay: Therapeutic effects of Beinaglutide on HFD induced NASH model in ob/ob mice (Example 2, 11 weeks); format: in vivo; details: for percentage of body weight changes from baselines: Day 78 (11 weeks); for plasma ALT level: FIG. 16B
Text: Animal grouping and experiment process: A total of 70 male ob/ob mice (6 weeks old) were fed with a chow diet after transferred to SPF animal room and acclimatized for 1 week. The feed was then switched to HFD diet (D09100310, fat (40 Kcal %), fructose (20 Kcal %) and cholesterol (2%), also named GAN (Gubra Amylin NASH) diet, Research Diets, Inc., USA) and maintained for 6 weeks. Inversed artificial circadian rhythms lighting were adopted during this period and subsequent drug administration period.
Plasma samples were collected for the measurement of ALT and mouse body weight data were measured at week 6. Animals were then randomly allocated into 4 groups (12 animals/group) based on body weight (the first weight index) and plasma ALT level (the second weight index). Drug and vehicle administration were started from week 7 since modeling start and mice were maintained on HFD diet with inversed artificial circadian rhythms lighting.
Data recording: Appearance and behavior of each mouse were observed after administration. All abnormal appearance, status and behaviors were recorded. In the period of HFD model development, body weight was measured once weekly from week 1 to week 6. Then body weight and food consumption were measured twice weekly since compound dosing start (week 7). The food consumption was calculated by the diet consumption of each cage of mice within 8 hours per day, the average food consumption per group was calculated. […]
Blood and tissue sampling: At the end of the in vivo study, all mice were euthanized via carbon dioxide (CO2) asphyxia after 11.5 hours fasting. Blood samples were collected via cardiac puncturing, one aliquot of each blood sample was collected into a tube without anti-coagulant for serum preparation. Serum was obtained by centrifugation at 3000 rpm for 10 minutes at 4° C. and then stored in a −80° C. refrigerator before being used for the measurement of ALT, AST, total bilirubin (TBIL), TC, TG and LDL-c. The other aliquot of each blood sample was collected into a tube with EDTA-K anti-coagulant for plasma preparation. Plasma samples were obtained by centrifugation at 4000×g for 10 minutes at 4° C. and then stored in a −80° C. refrigerator.
After the animal was sacrificed, the body weight and liver weight were measured, and four lobes of each liver were collected. The right middle lobe of each liver was collected, cut into two sections, put into two SNAP frozen tubes and kept at −80° C. before testing. One section of the liver tissue was used for mRNA expression analysis of Tgfb1, Col1a1 and Acta2; and the other section of the liver tissue was used for the measurement of TC and TG contents. The left middle lobe of each liver was collected, store at −80° C. for future use. The left lateral lobe of each liver was collected, cut into two sections and put into two tubes. One section was used for optimal cutting temperature (OCT) embedding, frozen sectioning and oil red staining for steatosis examination, and for calculation of percentage of fat deposition area. The other section was fixed with 10% neutral formalin solution and processed into formalin fixed paraffin-embedded (FFPE) block for H&E, Sirius red or α-SMA IHC staining respectively. The right lateral lobe of each liver was collected and fixed in 10% neutral formalin for future use.
Serum biochemistry analysis: The serum samples were taken out from −80° C. refrigerator and restored to room temperature. 150 μl of each serum sample was pipetted out for the analysis of ALT, AST, TBIL, TC, TG and LDL-c with automatic biochemical analyzer (HITACHI 7180).
qPCR analysis: The right middle lobe of each liver tissue was cut into small pieces, and 30-50 mg of liver tissue was weighed and transferred into a Lysing Matrix D tube, then 1 ml of TRIzol Reagent was added into Lysing Matrix D containing tissue immediately. […]

[2] = mouse, in vivo, sc
Method: Mice (n=4 per time point) were randomized into different groups by body weight on the day before the study. Mice were fasted overnight before dosing. […] Samples were collected at the time intervals shown in Table 1, where about 60 μL blood was taken into EDTA-coated tubes (pre-added 2.5 μL DPP-4 inhibitor, and 2.5 μL protease inhibitor). The plasma was separated on a pre-cooled centrifuge and then immediately frozen in dry ice. The samples were stored at −80° C. till assay.

[3] = test system: HFD-NASH mice; assay: Pharmacodynamics study of Beinaglutide in HFD-NASH mice (Example 1, 4 weeks); format: in vivo
Method: HFD-NASH model development Animals were group-housed in standard cages at 22° C. in a 12:12-h light-dark cycle. Ob/ob mice were allowed ad libitum access to a diet enriched in fat (40% kcal), fructose (20% by weight), and cholesterol (2% by weight) (Research Diets, Inc., #D09100310). Over 9 weeks feeding, the mice (HFD-NASH) were developed with nonalcoholic fatty liver disease (steatosis, steatohepatitis with fibrosis), as assessed by biochemical methods (e.g., ALT levels).^1 ^1Santhekadur P K, Kumar D P, Sanyal AszJ. Preclinical models of non-alcoholic fatty liver disease. J Hepatol. 2018 February; 68(2):230-237; 2) Clapper J R. Hendricks M D, Gu G. at al. Diet-Induced mouse model of fatty liver disease and nonalcoholic steatohepatitis reflecting clinical disease progression and methods of assessment. Am J Physiol Gastrointest Liver Physiol 305: G483-G495. 2013.
After 9 weeks diet-induction, HFD-NASH mice were randomized into different groups by body weight. Body weight and diet were measured every day. At termination, blood was collected by cardiac puncture after animal's euthanasia by CO2. Liver were harvested and weighted. Right medial and/or left lateral lobes of the liver were excised. One part of liver was frozen for liver triglyceride measurement. One part was frozen for protein, RNA level qualification, like collagen 1 alpha 1 (Col1a1). One part was paraffin embedded. Hematoxylin and eosin (H&E) were used for morphological analysis. Picrosirius red stains was used for assessment of hepatic fibrosis. Histopathological analysis was performed by a pathologist blinded to the study. The remaining liver tissue was kept at −80° C. till analysis. Plasma levels of ALT, AST, TG, and total cholesterol (TC) were measured by bioanalyzer or kits.
Oral glucose tolerance test (OGTT) was performed at day 30 and was a test to diagnose type 2 diabetes (FIG. 4B).
Homeostatic Model Assessment of Insulin Resistance (HOMA-IR) is a calculation marker for insulin resistance which was calculated by formula: Glucose (mM)×Insulin […]/22.5 (FIG. 4C). *P<0.05, […] vs vehicle group by student t test.

[4] = all 3 doses (0.6, 1.2, 2.4 mg/kg), about 11 weeks

CC[C@H](C)[C@H](NC(=O)[C@H](Cc1ccccc1)NC(=O)[C@H](CCC(=O)O)NC(=O)[C@H](CCCCN)NC(=O)[C@H](C)NC(=O)[C@H](C)NC(=O)[C@H](CCC(N)=O)NC(=O)CNC(=O)[C@H](CCC(=O)O)NC(=O)[C@H](CC(C)C)NC(=O)[C@H](Cc1ccc(O)cc1)NC(=O)[C@H](CO)NC(=O)[C@H](CO)NC(=O)[C@@H](NC(=O)[C@H](CC(=O)O)NC(=O)[C@H](CO)NC(=O)[C@@H](NC(=O)[C@H](Cc1ccccc1)NC(=O)[C@@H](NC(=O)CNC(=O)[C@H](CCC(=O)O)NC(=O)[C@H](C)NC(=O)[C@@H](N)Cc1cnc[nH]1)[C@@H](C)O)[C@@H](C)O)C(C)C)C(=O)N[C@@H](C)C(=O)N[C@@H](Cc1c[nH]c2ccccc12)C(=O)N[C@@H](CC(C)C)C(=O)N[C@H](C(=O)N[C@@H](CCCCN)C(=O)NCC(=O)N[C@@H](CCCNC(=N)N)C(=O)O)C(C)C [Beinaglutide]
liver fibrosis scores (H&E staining) ([1]; 0.6 mg/kg and 2.4 mg/kg, 11 weeks, vs control group, FIGS. 20A-20C): significantly (P<0.05) decreased | animal counts with severe pathological changes (steatosis, steatosis location, interlobular inflammation, liver fibrosis scores, liver fibrosis pattern) ([1]; 0.6 mg/kg or 2.4 mg/kg, about 11 weeks): decreased | percentage of body weight changes from baselines ([1]; 0.6 mg/kg t.i.d. s.c., first of three values given 'respectively'): −10.32% | liver TG contents ([1]; 1.2 mg/kg and 2.4 mg/kg, 11 weeks, FIG. 18B): dramatically decreased | plasma ALT level ([1]; 1.2 mg/kg and 2.4 mg/kg, after 6 weeks of treatment): significantly decreased | serum ALT ([1]; 1.2 mg/kg and 2.4 mg/kg, after 11 weeks of treatment, vs control group, FIG. 17A): significantly (P<0.05, or P<0.01) decreased | serum TC levels ([1]; 1.2 mg/kg and 2.4 mg/kg, after 11 weeks of treatment, vs control group, FIG. 17E): significantly (P<0.05, or P<0.01) decreased | serum AST level ([1]; 1.2 mg/kg and 2.4 mg/kg, after 11 weeks, P>0.05, FIG. 17B): appeared to have decreased | percentage of body weight changes from baselines ([1]; 1.2 mg/kg t.i.d. s.c., second of three values given 'respectively'): −10.12% | percentage of body weight changes from baselines ([1]; 2.4 mg/kg t.i.d. s.c., third of three values given 'respectively'): −10.74% | area of liver macrovesicular steatosis (H&E staining) ([1]; 2.4 mg/kg, 11 weeks, vs control group, FIG. 23B): significantly decreased | number of animals with significant fibrosis severity (liver fibrosis pattern scoring) ([1]; 2.4 mg/kg, 11 weeks, FIG. 21C): reduced | animal number with severe pathology for steatosis, steatosis location, interlobular inflammation ([1]; 2.4 mg/kg, 11 weeks, FIGS. 24A-24E): decreased | body weight increase ([1]; Beinaglutide treatment groups (0.6, 1.2, 2.4 mg/kg t.i.d. s.c.), 11 weeks, vs control group, FIGS. 13A-13D): significantly reduced | 8-hour average food consumption ([1]; Beinaglutide treatment groups (0.6, 1.2, 2.4 mg/kg), last 3 measurements (Day 68, 71, 75), vs control group, FIG. 14): significantly reduced | plasma ALT level ([1]; Beinaglutide treatment groups vs control group, after 9 weeks treatment): no significant difference | serum TG levels ([1]; Beinaglutide treatment groups, 11 weeks, P>0.05, FIG. 17D): no significant effect | liver TC content ([1]; Beinaglutide treatment groups, 11 weeks, vs control group, FIG. 18A): No statistically significant effect | serum TBIL ([1]; Beinaglutide treatment groups, 11 weeks, FIG. 17C): no significant effect | liver inflammation score [1, 4]: appeared to have decreased | serum AST level [1, 4]: appeared to have decreased | α-SMA positive areas (IHC staining) ([1]; all Beinaglutide treatment groups, 11 weeks, FIGS. 22A-22B): decreased | relative mRNA expression level of Col1a1 in liver (qRT-PCR) ([1]; each Beinaglutide dose group, 11 weeks, vs control group, FIG. 19A): significantly decreased | Tgfb1 gene expression level in liver (qRT-PCR) ([1]; each Beinaglutide dose group, 11 weeks, vs control group, FIG. 19B): no statistically significant differences | Acta2 gene expression level in liver (qRT-PCR) ([1]; each Beinaglutide dose group, 11 weeks, vs control group, FIG. 19C): no statistically significant differences | serum LDL-c level ([1]; each Beinaglutide treatment group (0.6, 1.2, 2.4 mg/kg), 11 weeks, vs control group, FIG. 17F): significant (P<0.05, P<0.01, or even P<0.001) decrease | percentage of Sirius red staining positive area ([1]; each Beinaglutide treatment group, 11 weeks, vs control group, FIGS. 21A-21C): appeared to have decreased | liver weight ([1]; every Beinaglutide treatment group (0.6, 1.2, 2.4 mg/kg), 11 weeks, vs control group, FIG. 15A): significantly decreased | liver index ([1]; every Beinaglutide treatment group (0.6, 1.2, 2.4 mg/kg), 11 weeks, vs control group, FIG. 15B): significantly decreased | NAS score ([1]; every Beinaglutide treatment group, 11 weeks, FIG. 23A): appeared to have decreased | difference of pharmacokinetics between C57BL/6J mice and HFD-NASH mice [2]: No significant difference | Body weight ([3]; 2.4 mg/kg s.c. three times per day, 4 weeks, vs control group, FIG. 4A): lower body weight | liver weight ([3]; 2.4 mg/kg s.c. three times per day, 4 weeks, vs vehicle, FIG. 2A): significantly reduced | liver triglyceride (TG) content ([3]; 2.4 mg/kg s.c. three times per day, 4 weeks, vs vehicle, FIG. 2B): significantly reduced | plasma alanine aminotransferase (ALT) ([3]; 2.4 mg/kg s.c. three times per day, 4 weeks, vs vehicle, FIG. 2C): significantly reduced | plasma aspartate aminotransferase (AST) ([3]; 2.4 mg/kg s.c. three times per day, 4 weeks, vs vehicle, FIG. 2D): significantly reduced | macrovesicular and microvesicular steatosis (H&E-stained liver sections) ([3]; 2.4 mg/kg s.c. three times per day, 4 weeks, vs vehicle, FIG. 2E): significantly reduced | Plasma TNF-α level ([3]; 2.4 mg/kg s.c. three times per day, 4 weeks, vs vehicle, FIG. 3A): significantly reduced | Plasma IL-6 level ([3]; 2.4 mg/kg s.c. three times per day, 4 weeks, vs vehicle, FIG. 3B): significantly reduced | Hepatic fibrosis (picrosirius red stained liver sections) ([3]; 2.4 mg/kg s.c. three times per day, 4 weeks, vs vehicle, FIG. 3E): significantly reduced | Protein level of liver collagen 1 alpha 1 (western blotting, densitometry normalized to actin) ([3]; 2.4 mg/kg s.c. three times per day, 4 weeks, vs vehicle, FIGS. 3C-3D): significantly lower | blood glucose in the oral glucose tolerance test (OGTT) ([3]; 2.4 mg/kg, OGTT at day 30, vs control group, FIG. 4B): lower blood glucose | HOMA-IR (insulin resistance) ([3]; 2.4 mg/kg, vs control group, FIG. 4C): lower insulin resistance
